Data from ChEMBL document CHEMBL4665624, “Synthesis of 5-(4-(1H-phenanthro[9,10-d]imidazol-2-yl)benzylidene)thiazolidine-2,4-dione as promising DNA and serum albumin-binding agents and evaluation of antitumor activity” (Eur J Med Chem, 2019).

Experiments:
HL-60(TB) = experiment: Antitumor activity against human HL-60(TB) cells assessed as cell growth inhibition at 10 uM incubated for 48 hrs by sulforhodamine B assay; assay type: functional; settings: read-out: GI
PC-3 = experiment: Antitumor activity against human PC-3 cells assessed as cell growth inhibition at 10 uM incubated for 48 hrs by sulforhodamine B assay; assay type: functional; settings: read-out: GI
SNB-75 = experiment: Antitumor activity against human SNB-75 cells assessed as cell growth inhibition at 10 uM incubated for 48 hrs by sulforhodamine B assay; assay type: functional; settings: read-out: GI
SF-268 = experiment: Antitumor activity against human SF268 cells assessed as cell growth inhibition at 10 uM incubated for 48 hrs by sulforhodamine B assay; assay type: functional; settings: read-out: GI
HCT-116 = experiment: Antitumor activity against human HCT116 cells assessed as cell growth inhibition at 10 uM incubated for 48 hrs by sulforhodamine B assay; assay type: functional; settings: read-out: GI
786-0 = experiment: Antitumor activity against human 786-0 cells assessed as cell growth inhibition at 10 uM incubated for 48 hrs by sulforhodamine B assay; assay type: functional; settings: read-out: GI
LOX IMVI = experiment: Antitumor activity against human LOX IMVI cells assessed as cell growth inhibition at 10 uM incubated for 48 hrs by sulforhodamine B assay; assay type: functional; settings: read-out: GI
SF-295 = experiment: Antitumor activity against human SF295 cells assessed as cell growth inhibition at 10 uM incubated for 48 hrs by sulforhodamine B assay; assay type: functional; settings: read-out: GI
MDA-MB-468 = experiment: Antitumor activity against human MDA-MB-468 cells assessed as cell growth inhibition at 10 uM incubated for 48 hrs by sulforhodamine B assay; assay type: functional; settings: read-out: GI
CCRF-CEM = experiment: Antitumor activity against human CCRF-CEM cells assessed as cell growth inhibition at 10 uM incubated for 48 hrs by sulforhodamine B assay; assay type: functional; settings: read-out: GI
IGROV-1 = experiment: Antitumor activity against human IGROV1 cells assessed as cell growth inhibition at 10 uM incubated for 48 hrs by sulforhodamine B assay; assay type: functional; settings: read-out: GI
UO-31 = experiment: Antitumor activity against human UO-31 cells assessed as cell growth inhibition at 10 uM incubated for 48 hrs by sulforhodamine B assay; assay type: functional; settings: read-out: GI
NCI-H460 = experiment: Antitumor activity against human NCI-H460 assessed as cell growth inhibition at 10 uM incubated for 48 hrs by sulforhodamine B assay; assay type: functional; settings: read-out: GI
BT-549 = experiment: Antitumor activity against human BT-549 cells assessed as cell growth inhibition at 10 uM incubated for 48 hrs by sulforhodamine B assay; assay type: functional; settings: read-out: GI
KM12 = experiment: Antitumor activity against human KM12 cells assessed as cell growth inhibition at 10 uM incubated for 48 hrs by sulforhodamine B assay; assay type: functional; settings: read-out: GI
SK-MEL-28 = experiment: Antitumor activity against human SK-MEL-28 cells assessed as cell growth inhibition at 10 uM incubated for 48 hrs by sulforhodamine B assay; assay type: functional; settings: read-out: GI
COLO 205 = experiment: Antitumor activity against human COLO205 cells assessed as cell growth inhibition at 10 uM incubated for 48 hrs by sulforhodamine B assay; assay type: functional; settings: read-out: GI
MDA-MB-435 = experiment: Antitumor activity against human MDA-MB-435 cells assessed as cell growth inhibition at 10 uM incubated for 48 hrs by sulforhodamine B assay; assay type: functional; settings: read-out: GI
SR = experiment: Antitumor activity against human SR cells assessed as cell growth inhibition at 10 uM incubated for 48 hrs by sulforhodamine B assay; assay type: functional; settings: read-out: GI
U-251 = experiment: Antitumor activity against human U251 cells assessed as cell growth inhibition at 10 uM incubated for 48 hrs by sulforhodamine B assay; assay type: functional; settings: read-out: GI
M14 = experiment: Antitumor activity against human M14 cells assessed as cell growth inhibition at 10 uM incubated for 48 hrs by sulforhodamine B assay; assay type: functional; settings: read-out: GI
SNB-19 = experiment: Antitumor activity against human SNB-19 cells assessed as cell growth inhibition at 10 uM incubated for 48 hrs by sulforhodamine B assay; assay type: functional; settings: read-out: GI
HCC 2998 = experiment: Antitumor activity against human HCC2998 cells assessed as cell growth inhibition at 10 uM incubated for 48 hrs by sulforhodamine B assay; assay type: functional; settings: read-out: GI
RXF 393 = experiment: Antitumor activity against human RXF 393 cells assessed as cell growth inhibition at 10 uM incubated for 48 hrs by sulforhodamine B assay; assay type: functional; settings: read-out: GI
SK-OV-3 = experiment: Antitumor activity against human SK-OV-3 cells assessed as cell growth inhibition at 10 uM incubated for 48 hrs by sulforhodamine B assay; assay type: functional; settings: read-out: GI
NCI-H23 = experiment: Antitumor activity against human NCI-H23 cells assessed as cell growth inhibition at 10 uM incubated for 48 hrs by sulforhodamine B assay; assay type: functional; settings: read-out: GI
SN12C = experiment: Antitumor activity against human SN12C cells assessed as cell growth inhibition at 10 uM incubated for 48 hrs by sulforhodamine B assay; assay type: functional; settings: read-out: GI
HCT-15 = experiment: Antitumor activity against human HCT15 cells assessed as cell growth inhibition at 10 uM incubated for 48 hrs by sulforhodamine B assay; assay type: functional; settings: read-out: GI
ACHN = experiment: Antitumor activity against human ACHN cells assessed as cell growth inhibition at 10 uM incubated for 48 hrs by sulforhodamine B assay; assay type: functional; settings: read-out: GI
A498 = experiment: Antitumor activity against human A498 cells assessed as cell growth inhibition at 10 uM incubated for 48 hrs by sulforhodamine B assay; assay type: functional; settings: read-out: GI
OVCAR-4 = experiment: Antitumor activity against human OVCAR-4 cells assessed as cell growth inhibition at 10 uM incubated for 48 hrs by sulforhodamine B assay; assay type: functional; settings: read-out: GI
UACC-62 = experiment: Antitumor activity against human UACC-62 cells assessed as cell growth inhibition at 10 uM incubated for 48 hrs by sulforhodamine B assay; assay type: functional; settings: read-out: GI
NCI-H226 = experiment: Antitumor activity against human NCI-H226 assessed as cell growth inhibition at 10 uM incubated for 48 hrs by sulforhodamine B assay; assay type: functional; settings: read-out: GI
Malme-3M = experiment: Antitumor activity against human MALME-3M cells assessed as cell growth inhibition at 10 uM incubated for 48 hrs by sulforhodamine B assay; assay type: functional; settings: read-out: GI
OVCAR-8 = experiment: Antitumor activity against human OVCAR-8 cells assessed as cell growth inhibition at 10 uM incubated for 48 hrs by sulforhodamine B assay; assay type: functional; settings: read-out: GI
OVCAR-3 = experiment: Antitumor activity against human OVCAR-3 cells assessed as cell growth inhibition at 10 uM incubated for 48 hrs by sulforhodamine B assay; assay type: functional; settings: read-out: GI
RPMI-8226 = experiment: Antitumor activity against human RPMI8226 cells assessed as cell growth inhibition at 10 uM incubated for 48 hrs by sulforhodamine B assay; assay type: functional; settings: read-out: GI
MDA-MB-231 = experiment: Antitumor activity against human MDA-MB-231/ATCC cells assessed as cell growth inhibition at 10 uM incubated for 48 hrs by sulforhodamine B assay; assay type: functional; settings: read-out: GI
NCI-H522 = experiment: Antitumor activity against human NCI-H522 cells assessed as cell growth inhibition at 10 uM incubated for 48 hrs by sulforhodamine B assay; assay type: functional; settings: read-out: GI
MOLT-4 = experiment: Antitumor activity against human MOLT4 cells assessed as cell growth inhibition at 10 uM incubated for 48 hrs by sulforhodamine B assay; assay type: functional; settings: read-out: GI
HOP-92 = experiment: Antitumor activity against human HOP92 cells assessed as cell growth inhibition at 10 uM incubated for 48 hrs by sulforhodamine B assay; assay type: functional; settings: read-out: GI
HT-29 = experiment: Antitumor activity against human HT-29 cells assessed as cell growth inhibition at 10 uM incubated for 48 hrs by sulforhodamine B assay; assay type: functional; settings: read-out: GI
EKVX = experiment: Antitumor activity against human EKVX cells assessed as cell growth inhibition at 10 uM incubated for 48 hrs by sulforhodamine B assay; assay type: functional; settings: read-out: GI
SW-620 = experiment: Antitumor activity against human SW620 cells assessed as cell growth inhibition at 10 uM incubated for 48 hrs by sulforhodamine B assay; settings: SW-620, 48 h, read-out: GI
Hs-578T = experiment: Antitumor activity against human HS 578T cells assessed as cell growth inhibition at 10 uM incubated for 48 hrs by sulforhodamine B assay; assay type: functional; settings: read-out: GI
MCF7 = experiment: Antitumor activity against human MCF7 cells assessed as cell growth inhibition at 10 uM incubated for 48 hrs by sulforhodamine B assay; assay type: functional; settings: read-out: GI
NCI/ADR-RES = experiment: Antitumor activity against human NCI/ADR-RES cells assessed as cell growth inhibition at 10 uM incubated for 48 hrs by sulforhodamine B assay; assay type: functional; settings: read-out: GI
K562 = experiment: Antitumor activity against human K562 cells assessed as cell growth inhibition at 10 uM incubated for 48 hrs by sulforhodamine B assay; assay type: functional; settings: read-out: GI

SMILES: Oc1ccccc1-c1nc2c3ccccc3c3ccccc3c2o1
- inhibition of growth at 10 µM (HL-60(TB)): 12%
- inhibition of growth at 10 µM (PC-3): 22.2%
- inhibition of growth at 10 µM (SNB-75): 10.3%
- inhibition of growth at 10 µM (SF-268): 10.2%
- inhibition of growth at 10 µM (HCT-116): 19.2%
- inhibition of growth at 10 µM (786-0): < 10%
- inhibition of growth at 10 µM (LOX IMVI): < 10%
- inhibition of growth at 10 µM (SF-295): < 10%
- inhibition of growth at 10 µM (MDA-MB-468): 17%
- inhibition of growth at 10 µM (CCRF-CEM): 17.9%
- inhibition of growth at 10 µM (IGROV-1): 25.9%
- inhibition of growth at 10 µM (UO-31): 39%
- inhibition of growth at 10 µM (NCI-H460): 30.4%
- inhibition of growth at 10 µM (BT-549): < 10%
- inhibition of growth at 10 µM (KM12): < 10%
- inhibition of growth at 10 µM (SK-MEL-28): < 10%
- inhibition of growth at 10 µM (COLO 205): 14.3%
- inhibition of growth at 10 µM (MDA-MB-435): < 10%
- inhibition of growth at 10 µM (SR): 26.3%
- inhibition of growth at 10 µM (U-251): 18%
- inhibition of growth at 10 µM (M14): < 10%
- inhibition of growth at 10 µM (SNB-19): < 10%
- inhibition of growth at 10 µM (HCC 2998): < 10%
- inhibition of growth at 10 µM (RXF 393): < 10%
- inhibition of growth at 10 µM (SK-OV-3): < 10%
- inhibition of growth at 10 µM (NCI-H23): 14.5%
- inhibition of growth at 10 µM (SN12C): 17%
- inhibition of growth at 10 µM (HCT-15): < 10%
- inhibition of growth at 10 µM (ACHN): < 10%
- inhibition of growth at 10 µM (A498): < 10%
- inhibition of growth at 10 µM (OVCAR-4): 23.6%
- inhibition of growth at 10 µM (UACC-62): 11.6%
- inhibition of growth at 10 µM (NCI-H226): 14.2%
- inhibition of growth at 10 µM (Malme-3M): < 10%
- inhibition of growth at 10 µM (OVCAR-8): 11%
- inhibition of growth at 10 µM (OVCAR-3): < 10%
- inhibition of growth at 10 µM (RPMI-8226): 24.5%
- inhibition of growth at 10 µM (MDA-MB-231): 18.3%
- inhibition of growth at 10 µM (NCI-H522): < 10%
- inhibition of growth at 10 µM (MOLT-4): < 10%
- inhibition of growth at 10 µM (HOP-92): 16.2%
- inhibition of growth at 10 µM (HT-29): < 10%
- inhibition of growth at 10 µM (EKVX): 21.2%
- inhibition of growth at 10 µM (SW-620): 31.6%
- inhibition of growth at 10 µM (Hs-578T): 10.5%
- inhibition of growth at 10 µM (MCF7): 37.6%
- inhibition of growth at 10 µM (NCI/ADR-RES): < 10%
- inhibition of growth at 10 µM (K562): 11.9%
